# Test results reported in patent US20100092456A1, “METHODS OF TREATMENT” (priority 2006, published 2010).
# No end group written: not given here.
# Experiments:
# [1] = biological target: T1, PtdIns(4,5)P—F PH domain complex (Homo sapiens, UniProt P51178); experiment: Displacement of PtdIns(4,5)P—F from the PH domain complex by unlabelled lipids; type: binding
# T1 construct: GST-tagged PLCδ1 Pleckstrin homology (PH) domain protein expressed and purified in-house in E. Coli; made in house; host or cells: E. coli
# T1 sequence (P51178 21-130 limits assumed): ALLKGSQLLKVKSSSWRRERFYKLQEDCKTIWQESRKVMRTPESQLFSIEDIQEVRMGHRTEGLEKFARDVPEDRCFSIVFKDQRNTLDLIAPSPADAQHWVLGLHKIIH
# Protocol: FIG. 7. A 10 nM-1 uM PtdIns(4,5)P—F PH domain complex was incubated with increasing concentrations of unlabelled PtdIns(4,5) P2 (circles) and unlabelled PtdIns5P (squares). The unlabelled product disrupts the complex fully at 1 mM, substrate has no effect at 16 mM, (duplicates).
# FIG. 20: A PtdIns(4,5)P—F PH domain complex (10 nM/500 nM) was incubated with increasing concentrations of unlabelled PtdIns(4,5) P2 (triangles) and unlabelled PtdIns4P (diamonds). The unlabelled product disrupts the complex fully at 750 nM, substrate has no effect at 5 μM.
# [2] = tested on: PtdIns(4,5)P2 in HeLa cells; experiment: PtdIns(4,5)P2 levels visualised with GFP-PH domain of PLCdelta1 probe in HeLa cells; type: cell-based; settings: transient, levels quickly recover
# Source text: Changes in intracellular PtdIns(4,5)P2 levels following stimulation with neurokinin A were visualised in real time using a fusion protein of GFP and the PH domain of PLCdelta1 as a probe. GFP PLC delta 1 is a highly specific in vivo probe for PIP2 in cells.
# HeLa cells were transiently transfected with an expression plasmid encoding a fusion protein of GFP and the PH domain of PLCdelta1.
# HeLa cells were transiently transfected with an expression plasmid encoding a fusion protein of GFP and the pleckstrin homology domain of PLCdelta1. GFP PLC delta1 is a highly specific in vivo probe for PtdIns(4,5)P2 in cells. Results are in FIG. 10.
# type II β PIP kinase = experiment: Type II PIP kinase activity in immunoprecipitates using PtdIns5P as substrate; type: cell-based
# Protocol: FIG. 3. A) MEL cells were either untransfected or transfected to express myc-type II b PIP kinase. After 40 hours the cells some of the cells were irradiated with 200 J/m of UV light before reculturing for varying times indicated in the figure. The cells were collected and endogenous type II PIP kinase was immunoprecipitated from whole cell lysates using an anti-pan type II b PIP kinase antibody or an anti-myc antibody. Type II PIP kinase activity in the immunoprecipitates was determined using PtdIns5P as the substrate. The results are calculated from 3 independent experiments.
# To test this hypothesis endogenous type II PIP kinases were immunoprecipitated from control-treated and UV-irradiated MEL cells and their activities were measured using PtdIns5P as a substrate. […] As the antibody used to immunoprecipitate recognises all type II PIP kinase isoforms, we transfected MEL cells with myc-tagged type II β PIP kinase and measured its activity in immunoprecipitates in response to UV irradiation. […] UV irradiation is known to regulate both stress-activated protein kinases (SAPKs) and mitogen-activated protein kinases (MAPKs) and therefore we determined if any of these UV induced pathways impinged on type II β PIP kinase activity. […] Therefore we assessed whether activation of the p38 pathway alone could mediate type II β PIP kinase inhibition. […]
# MEL cells = experiment: MEL cell viability and cell cycle profile; type: cell-based, Murine; settings: compound alone
# Protocol: Ethanol fixed cells were incubated with prodium iodide (20 μg/ml) and RNAse (10 μg/ml) before cell cycle analysis by flow cytometry. Proteins were analysed by standard western blotting procedures employing the following antibodies: anti-tubulin and anti-flag (both from Sigma), anti-actin (Chemicon International), anti-histone 4 (Upstate Biotechnology), anti-phospho p54, anti-phospho p46, anti-phospho p38, total p54, total p46 and total p38 (all from Cell Signalling Technology) anti-ING2, anti EGFP (Clontech), anti-type II β PIP kinase, anti-GST and anti-myc (both generated in house).
# To investigate the sub-nuclear localisation of UV-induced nuclear PtdInsPs, we fractionated nuclei to generate nucleoplasm (containing nuclear membranes and soluble nuclear material) and the chromatin enriched fraction (CEF) (FIG. 1c inset). […] Thus, the PtdInsP pool present in the CEF is a target for regulation in response to cellular stress.
# [3] = tested on: nuclear PtdIns4P and PtdIns5P in differentiated MEL cells; experiment: Mass assay of nuclear PtdIns4P and PtdIns5P in differentiated MEL cells; type: cell-based, Murine; settings: NAC 5 mM or BSO 100 μM for 4 hours, H2O2 500 μM for 15 minutes, vs control-treated cells
# Protocol: B) Differentiated MEL cells were treated with NAC (5 mM) or BSO (100 μM), each for 4 hours, or H2O2 (500 μM) for 15 minutes prior to the isolation of intact nuclei. A mass assay was used to determine the levels of PtdIns4P and PtdIns5P. The results are expressed as % of control-treated differentiated MEL cells and are calculated from 3 independent experiments.
# MEL, HEK 293 and HT1080 cells were maintained in routine culture using 10% FCS in DMEM. When required, differentiated MEL cells were prepared by the addition of 1.5% DMSO to the culture medium for a period of 4 days. MEL cells were transfected using Effectene (Qiagen), HEK 293 cells with calcium phosphate and HT1080 with LT1 (Mirus corporation). The following plasmids were used: pEGFP, pCDNA3 (both from Clontech), pCDNA3-Flag-MKK6+ and pCDNA3-Flag-MKK6-(from Dr. M. Schmidt, The Netherlands Cancer Institute), pSuper (from Dr. R. Agami, The Netherlands Cancer Institute), pCDNA3-EGFP-IpgD/IpgE, pCDNA3-EGFP-PIP kinase typeIIβ, and RNAi for type II β PIP kinase (termed pSuper-IIβRNAi). The targeting sequence for the latter was […]. Irradiation of the cells with 254 nm UV-C light (0-200 J/m) or gamma rays (0-40 Gy, from a Cesium 137 source) was performed using 6-well or 10 cm plastic petri dishes with a depth of medium covering the cells not exceeding 3-4 mm. Thereafter, the cells were returned to normal culture conditions for 30 minutes before subcellular fractionation was started. To determine long terms effects of UV and gamma irradiation the cells were returned to normal culture conditions for up to 48 hours.
# MEL cells were washed, twice in ice cold PBS before their fractionation using a detergent-free hypotonic buffer. This method yields a mixed cytosol and membrane fraction and intact nuclei after separation using a sucrose cushion. MEL cell nuclei were fractionated into nucleoplasm and the CEF using modifications of a previously published method. Briefly, intact MEL cell nuclei were resuspended in ice cold hypotonic buffer (3 mM EDTA, 0.2 mM EGTA and 1 mM DTT pH 7.85, with protease inhibitors) followed by forced passage (12 times) through a 25 gauge needle. After centrifugation (1700 g) the supernatant (the nucleoplasm) was saved. The pellet (CEF) was washed twice before resuspending by sonication in 10 mM TrisHCl, 10% sucrose, 10 mM MgCl2 pH 7.4, with protease inhibitors. The protein content of all fractions was determined using the Bradford reagent (BioRad). PtdIns4P and PtdIns5P were measured using in vitro mass assays employing recombinant type I and type II PIP kinases, respectively. The product PtdIns(4,5)P2 was separated by TLC. The amount of radioactivity found in PtdIns(4,5)P2 was proportional to the amount of PtdInsP isomer in the neomycin affinity-purified lipid extract.
# However, no studies have determined a role for nuclear phosphoinositides or defined downstream protein targets mediating phosphoinositide-stress activated pathways. To study changes in nuclear phosphoinositides in response to cellular stress, we used Murine erythroleukaemia (MEL) cells as a model system because preparations of nuclei from these cells have been proven to be of high purity. To visualise changes in phosphoinositides, various independent methods were used. The mass level of both PtdIns4P and PtdIns5P were measured using an assay that relies on the differential in vitro specificities of type I and type II PIP kinases. […] Gamma irradiation (10 Gy) led to a small (approximately 20%) decrease in the PtdIns4P level but no detectable change in the level of PtdIns5P in whole nuclei (FIG. 1a). To determine if nuclear PtdInsPs were regulated by oxidative stress we treated differentiated MEL cells with H2O2, BSO (L-buthionine[S,R]-sulphoximine, a glutamyl-cysteine synthetase inhibitor, which increases intracellular reactive oxygen species (ROS)) or NAC. (N-acetyl-cysteine, which increases cellular glutathione levels and cell' capability to deal with ROS). […]
# ING2 = experiment: Western blot of endogenous ING2 associated with the CEF of MEL cells; type: cell-based, Murine; settings: MEL cells; 200 J/m UV; NAC 5 mM 4 hours, wortmannin 200 nM and 5 μM, curcumin 100 μM
# Protocol: FIG. 4. A) Exponentially growing MEL cells were irradiated with either 200 J/m of UV light or 10 Gy of gamma radiation. After 30 minutes the CEF was isolated and the subjected to SDS-PAGE followed by transfer of the separated proteins to a nitrocellulose membrane. Western blotting for endogenous ING2 and histone 4 proteins was performed. Representative western blots are shown. B) Exponentially growing MEL cells were incubated in the absence or presence of N-acetyl cysteine (NAC) (5 mM) for 4 hours prior to a control irradiation or exposed to 200 J/m of UV light before the isolation of the CEF. Differentiated MEL cells were incubated in the absence or presence of H2O2 (500 μM) for 15 minutes prior to the isolation of the CEF. Proteins in the CEF were subjected to SDS-PAGE followed by transfer to a nitrocellulose membrane. Western blotting for endogenous ING2 and histone 4 proteins was performed. Representative western blots are shown. C) MEL cells were preincubated with either vehicle, wortmannin (200 nM and 5 μM) or curcumin (100 μM) were irradiated with 200 J/m of UV light. After 30 minutes the CEF was isolated and proteins were subjected to SDS-PAGE followed by transfer to a nitrocellulose membrane. Western blotting for endogenous ING2 and histone 4 proteins was performed. Representative western blots are shown. D) The CEF from transiently transfected MEL cells with either pSuper or pSuper-IIβRNAi was prepared. Proteins in the CEF were subjected to SDS-PAGE followed by transfer to a nitrocellulose membrane. […] Proteins were analysed by standard western blotting procedures employing the following antibodies: anti-tubulin and anti-flag (both from Sigma), anti-actin (Chemicon International), anti-histone 4 (Upstate Biotechnology), anti-phospho p54, anti-phospho p46, anti-phospho p38, total p54, total p46 and total p38 (all from Cell Signalling Technology) anti-ING2, anti EGFP (Clontech), anti-type II β PIP kinase, anti-GST and anti-myc (both generated in house).
compound,measurement,setting,value
PtdIns5P,effect on the complex,"[1]; 10 nM-1 uM PtdIns(4,5)P—F PH domain complex (FIG. 7)",no effect
"neurokinin A (HKTDSFVGLM; ends and bridges not checked; UniProt P20366 98-107, looked up) [growth factor used to stimulate PtdIns(4,5)P2 depletion]","PtdIns(4,5)P2 levels (GFP-PH probe at plasma membrane) after growth factor stimulation",[2],depletion
C[S+]([O-])c1ccc(-c2nc(-c3ccncc3)c(-c3ccc(F)cc3)[nH]2)cc1 (centres unmarked) [SB 203580],UV light-induced inhibition of type II β PIP kinase activity,type II β PIP kinase; pre-treatment of MEL cells,blocked
COC[C@H]1OC(=O)c2coc3c2[C@@]1(C)C1=C(C3=O)[C@@H]2CCC(=O)[C@@]2(C)C[C@H]1OC(C)=O [wortmannin],effect on the cell cycle profile,MEL cells; MEL cells,no effect
same,effect on MEL cell viability,MEL cells,no effect
COc1ccc(C[C@H]2NC[C@H](O)[C@H]2OC(C)=O)cc1 [anisomycin],inhibition of type II β PIP kinase activity,type II β PIP kinase; treatment of cells,approximately 50%
D-myo-Phosphatidylinositol 4-phosphate [PtdIns4P],effect on the complex,"[1]; at 5 μM, PtdIns(4,5)P—F PH domain complex (10 nM/500 nM) (FIG. 20)",no effect
"CC(=O)N[C@@H](CS)C(=O)O [NAC, N-acetyl-cysteine]",level of nuclear PtdIns4P,[3],lowered
same,level of nuclear PtdIns5P,[3],lowered
same,UV-induced translocation of endogenous ING2 to the CEF,ING2,did not block
"phosphatidylinositol 4,5-bisphosphate [PtdIns(4,5) P2]",concentration at which unlabelled lipid disrupts the complex fully,"[1]; 10 nM-1 uM PtdIns(4,5)P—F PH domain complex, duplicates (FIG. 7)",1 mM
same,concentration at which unlabelled lipid disrupts the complex fully,"[1]; PtdIns(4,5)P—F PH domain complex (10 nM/500 nM) (FIG. 20)",0.00075 mM
"CCCCS(=N)(=O)CCC(N)C(=O)O [BSO, L-buthionine[S,R]-sulphoximine]",level of nuclear PtdIns4P,[3],increased
same,level of nuclear PtdIns5P,[3],increased
